One data set deals with MOLT-3 cells. As to the kind of experiment: Apoptosis induction, MOLT-3 cells. Type of data set: cell-based. Particulars: Homo sapiens, MOLT-3, 24 h; vs vehicle control (FIG. 3). The procedure:
(§1) The ability of HI-131 to induce apoptosis cells was evaluated in human leukemia in NALM-6 cells and primary leukemic cells from 2 patients. Cells were treated with 50 μM compound HI-131 for 24 hours. After incubation, the cells were harvested and analyzed for apoptosis by in situ TUNNEL analysis and confocal laser scanning microscopy as described in Sudbeck et al., 1999, Clin Cancer Res., 5:1589-82. Controls were treated with vehicle alone.
(§2) Induction of apoptosis was further evaluated in primary leukemic cells and established NALM-6 and MOLT-3 cell lines following treatment with HI-131.

Another data set has as its system primary leukemic cells. The data set is described as follows: Apoptosis induction, primary leukemic cells (in situ TUNNEL, confocal microscopy). Type of data set: cell-based, human. The procedure:
as §1, §2

The test system of the next data set is BT-20 (breast cancer). The data set is described as follows: MTT cytotoxicity assay, BT-20. The following applies: Homo sapiens, 24-36 hours at 37° C., 0.1 to 250 μM. Type of data set: cell-based. The essentials: (§3)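 Cells were seeded at 2.5×10^4/well, grown 36 h, then exposed to compound at 0.1–250 μM in triplicate for 24–36 h at 37 °C. MTT (0.5 mg/ml final) was added for 4 h, and formazan was solubilised in SDS/HCl and read at 540 nm. Live-cell numbers came from standard curves, and IC50 values came from non-linear regression of percent survival.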

For the next data set, the system named is U373 glioblastoma cells. The data set is described as follows: Cell invasion assay (Matrigel-coated Boyden chambers), U373. Type of data set: cell-based, human. The following applies: through Matrigel matrix, 1 μM to 25 μM, 48 hours (FIG. 5). As for the experimental part:
(§4) The in vitro invasiveness of MDA-MB-231 breast cancer cells and U373 glioblastoma cells was assayed using a previously published method which employs Matrigel-coated Costar 24-well transwell cell culture chambers ("Boyden chambers") with 8.0-μm-pore polycarbonate filter inserts (Albini, et al., 1987, Cancer Res., 47:3239-3245). The chamber filters were coated with 50 μg/ml of Matrigel matrix, incubated overnight at room temperature under a laminar flow hood and stored at 4° C. Matrigel matrix is made up of several components of the extracellular matrix (ECM), including collagens, laminin and proteo-glycans.
(§5) On the day of the experiment, the coated inserts were rehydrated with 0.5 ml serum-free DMEM containing 0.1% bovine serum albumin for 1-2 hours. […] The cells were trypsinized, washed twice with serum-free DMEM containing BSA, counted and resuspended at 1×10^5 cells/ml. […] The invasive cells that migrated to the lower side of the filter were fixed, stained with Hema-3 solutions and counted under microscope. Five to 10 random fields per filter were counted to determine the mean (SE) values for the invasive fraction. The invasive fractions of cells treated with HI-131 were compared to those of DMSO treated control cells and the percent invading relative to the control was determined using the formula: [formula]
(§6) Each treatment condition was evaluated in duplicate in 3 independent experiments. […]

The test system of data set [1] is MDA-MB-231 breast cancer cells. As to the kind of experiment: Cell invasion assay (Matrigel-coated Boyden chambers), MDA-MB-231. Type of data set: cell-based, human. Particulars: through Matrigel matrix, 2.5 μM to 25 μM, 48 hours (FIG. 4). The procedure: as §4, §5, §6
The subject of another data set is Molt-3 (T-lineage ALL). As to the kind of experiment: MTT cytotoxicity assay, Molt-3. Type of data set: cell-based, human. Particulars: MTT, 24-36 hours at 37° C., 0.1 to 250 μM. A digest of the protocol: as §3
For orientation: Tetrazolium dyes change colour on reduction, which living cells bring about.

The next data set has as its system primary leukemia cells. The data set is described as follows: MTT cytotoxicity in primary cancer cells from six children with leukemia. Type of data set: cell-based, human. The following applies: 0 to 50 μM, all six patients. The procedure:
Cytotoxicity of various compounds against tumor cells was performed using the MTT (3-[4,5-[…]]-2,5-diphenyl tetrazolium bromide) assay (Boehringer Mannheim Corp., Indianapolis, Ind.). Unless otherwise specified, all cell lines were obtained from the American Type Culture Collection (ATCC). Briefly, exponentially growing cells were seeded into a 96-well plate at a density of 2.5×10^4 cells/well and incubated for 36 hours at 37° C. prior to drug exposure. On the day of treatment, culture medium was carefully aspirated from the wells and replaced with fresh medium containing the indicated compound at concentrations ranging from 0.1 to 250 μM. Triplicate wells were used for each treatment.
The cells were incubated with the various compounds for 24-36 hours at 37° C. in a humidified 5% CO2 atmosphere. […] The absorbence of each well was measured in a microplate reader (Labsystems) at 540 nm and a reference wavelength of 690 um. […] The percent survival was calculated using the formula: [formula]
The cytotoxicity of HI-131 against primary cancer cells was evaluated in leukemia cells taken from six children (FIG. 1A), using the MTT assay described for Example 3. […] Percent survival was calculated as described for Example 3 and plotted against the HI-131 concentration used in the experiment. […]

The next data set deals with Nalm-6 (B-lineage ALL). As to the kind of experiment: MTT cytotoxicity assay, Nalm-6. Type of data set: cell-based. The following applies: Homo sapiens, 24-36 hours at 37° C., 0.1 to 250 μM. A digest of the protocol: as §3

With `CCCCCCCCCCCCSC[C@H](NC(C)=O)C(=O)CCl` [HI-131, N-Ac-S-dodecyl-Cys chloromethyl ketone], the fold induction (commonly the signal under treatment as a multiple of the control signal) at 50 µM with MOLT-3 cells was roughly 20; with primary leukemic cells (Homo sapiens, 24 h, typical, vs vehicle control (FIG. 3)), roughly 4. The “apoptosis induction (TUNNEL/confocal), primary leukemic cells” value in the data set on primary leukemic cells (50 μM, 24 hours, 2 patients) is reported as “greatly induced apoptosis”. Also, the “rate of apoptosis, primary leukemic cell samples” value in the data set with primary leukemic cells (all but one of the samples (FIG. 3)) is on record as “increased dramatically”. Besides, the IC50 (as a rule, the concentration that gives 50% inhibition) was determined as 10 µM in the data set with BT-20 (breast cancer), 2.3 µM in the data set on Molt-3 (T-lineage ALL) and 2 µM with Nalm-6 (B-lineage ALL). In addition, in the data set on U373 glioblastoma cells, the “inhibition of invasion, U373” value is given as “inhibited the invasion”. Also, the “inhibition of invasion, MDA-MB-231” value in data set [1] was “inhibited the invasion”. In addition, in the data set with primary leukemia cells, the “cytotoxic effect in primary cancer cells” value was “dose dependent cytotoxic effect”.

These data come from patent US6251882A, “Alkyl ketones as potent anti-cancer agents” (Parker Hughes Institute, priority 1999, dated 2001).
